Literature values, collected in US20250387523A1, “COMBINATION THERAPY OF RADIONUCLIDE COMPLEX” (Novartis AG, priority 2021, published 2025).
Where two headings read alike, the source gives them in different places.

Assays:
recurrent glioblastoma = settings: randomized 2:1
[1] = test system: newly diagnosed glioblastoma; settings: newly diagnosed patients; temozolomide added to radiation therapy (radiotherapy alone 12.1 months)
[2] = test system: newly diagnosed glioblastoma

## O=NN(CCCl)C(=O)NC1CCCCC1 [lomustine]
Recurrent glioblastoma
  median OS: 8.6 months
  median PFS: 1.5 months

## Cn1nnc2c(C(N)=O)ncn2c1=O [temozolomide, 3,4-Dihydro-3-methyl-4-oxoimidazo[5,1-d][1,2,3,5]tetrazine-8-carboxamide]
[1]
  median overall survival: 14.6 months
[2]; patients with a methylated MGMT promoter, temozolomide and radiotherapy (radiotherapy only 15.3 months, P=0.007)
  median survival: 21.7 months
[2]; tumors not methylated at the MGMT promoter, temozolomide plus radiotherapy (radiotherapy only 11.8 months, P=0.06)
  median survival: 12.7 months
glioblastoma; glioblastoma patients treated with temozolomide, MGMT promoter methylation present vs lacking
  longer median survival with MGMT promoter methylation: approximately 50%
glioblastoma; patients that lack MGMT promoter methylation
  clinical benefit: no clinical benefit
